In US20060148712A1, “Monocyte chemoattractant activity of galectin-3” (priority 2000, published 2006):

Key:
Type in all cases: cell-based
human monocytes = experiment: Measurement of Ca2+ influx in monocytes (Indo-1 AM)
Experimental: Intracellular concentrations of Ca^2+ were measured by using Indo-1 AM according to a previously described method (Lopez, et al., Cytometry 10:165-73 (1989)). Purified monocytes were resuspended in HBSS containing 1 mM Ca^2+, 1 mM Mg^2+, and 5% autologous serum, and incubated with […] Indo-1 AM for 45 min at 37° C. The cells were washed once, resuspended in the same buffer, and stimuli and inhibitors were added at the time points specified in the Figure Legends. Intracellular Ca^2+ concentration was measured by monitoring light emission at 405 and 485 nm to an excitation wavelength of 355 nm, using an AMINCO-Bowman series 2 luminescence spectrometer (Rochester, N.Y.).

[1] = system: cultured human peripheral blood macrophages; experiment: Migration of cultured human peripheral blood macrophages in vitro; details: 1 μM galectin-3; p<0.05, n=3
From the text: Human macrophages were obtained by culturing peripheral blood monocytes in vitro for 7 days as previously described (Fantuzzi, et al., Blood 94:875-83 (1999)). Human alveolar macrophages were obtained from bronchoalveolar lavage (BAL) fluid according to a previously described protocol (Sugimoto et al, Am. Rev. Respir. Dis. 139:1329-35 (1989)). The purity of the macrophages was over 90% and the viability was over 99%.
Monocyte migration was examined by using 96-well micro Boyden chambers with 5 μm-pore size filters (Neuro Probe, Inc., Gaithersburg, Md.) as described previously (Falk, et al., J. Immunol. Meth. 33:239-47 (1980)), Chertov, et al., J. Biol. Chem. 271:2935-40 (1996)). Briefly, after the indicated concentrations of galectin-3 in RPMI 1640 were applied to the lower chambers, purified monocyte suspensions (2.5-5.0×10^4/well) were applied to the upper chambers. After incubation of the chambers for 1 h in a humidified incubator at 5% CO2 and 37° C., the filters were washed once with PBS and processed with Wright stain. The number of monocytes on the bottom side of the filters was counted in 5 to 10 high-power fields. Monocyte migration was calculated from the average numbers of the counted cells and expressed as % of input cells in a well.

neutrophils = experiment: Neutrophil migration

## galectin-3: Recombinant human galectin-3, a 26 kDa beta-galactoside-binding protein (lectin)
Human monocytes; 1 μM galectin-3
  Induction of Ca2+ influx in human monocytes: induced a Ca^2+ influx
Human monocytes; 1 μM galectin-3 vs 100 ng/ml MCP-1, three separate experiments
  Extent of Ca2+ influx compared with MCP-1: lower than that by the chemokine
Human monocytes; 1 μM galectin-3 vs MCP-1, MIP-1α, SDF-1α at 100 ng/ml, either order
  Cross-desensitization of Ca2+ influx with monocyte-reactive chemokines: no cross-desensitization
Human monocytes; galectin-3 concentrations lower than 1 μM
  Induction of Ca2+ influx in human monocytes: not
[1]
  Enhancement of macrophage migration over that induced by the control medium: 190%
neutrophils
  Concentration required for maximum migration of neutrophils compared with monocytes: Lower concentrations
